Values quoted from earlier work as cited in patent publication US4083974A, “Topical steroidal anti-inflammatory preparations containing polyoxypropylene 15 stearyl ether” (The Upjohn Company, priority 1977, dated 1978).

What was measured:
[1] = known property from the art
[2] = known property of the prior-art solvent
bacterial = conditions: prior art; composition contains approximately 15% ethyl alcohol

In the case of `CC(O)CO` (stereo not drawn) [Propylene glycol, propylene glycol], the lubricant properties [1] is listed as “non-lubricant” and the “irritation to the skin” value [2] is listed as “irritating to the skin”.
For `CCO` [ethyl alcohol], the anti-bacterial activity (bacterial) is given as “known anti-bacterial agent”.
